Test results as given in US8153424B2, “Method of in vitro differentiation of neural stem cells, motor neurons and dopamine neurons from primate embryonic stem cells” (Wisconsin Alumni Research Foundation, priority 2001, dated 2012).

Legend:
Format in all cases: cell-based, human
[1] = system: hESC-derived neural precursors; test: BrdU incorporation by dissociated ES cell-derived neural precursors; conditions: FGF2 20 ng/ml, EGF 20 ng/ml, LIF 5 ng/ml; each alone
Protocol: Histochemical and immunohistochemical staining. To better visualize the rosette formations, cultures with rosettes were rinsed with PBS and fixed in 4% paraformaldehyde and 0.25% glutaraldehyde for 1 hour. The fixed cells were then processed for embedding in plastic resin as described (Zhang et al., supra, 1999). The cultured cells were then sectioned in 1-μm thickness and stained with toluidine blue. For immunostaining, the coverslip cultures were immunostained with the following primary antibodies detected by appropriate fluorescent secondary antibodies detailed elsewhere (Zhang et al., supra, 2000; Zhang et al., supra, 1999): anti-nestin (polyclonal, gift of Dr. R. McKay of NINDS, 1:1,000); anti-polysialylated neuronal cell adhesion molecule (PSA-NCAM, mouse IgM, gift of Dr. G. Rougon of University of Marseille, France, 1:200); anti-Musashi-1 (rat IgG, gift of Dr. H. Okano, University of Tokyo, Japan, 1:500); anti-GFAP (polyclonal, Dako, 1:1,000); anti-human GFAP (Sternberg monoclonals, 1:10,000); O4 (mouse IgM, hybridoma supernatant, 1:50); anti-tyrosine hydroxylase (TH, Pel Freez, 1:500). The remaining antibodies were from Sigma: anti-βIII-tubulin (mouse IgG, 1:500); anti-neurofilament (NF) 68 (mouse IgG, 1:1,000); anti-NF 200 (polyclonal, 1:5,000); anti-MAP2ab (mouse IgG, 1:250); anti-γ-aminobutyric acid (GABA, polyclonal, 1:10,000); anti-glutamate (mouse IgG, 1:10,000). For bromodeoxyuridine (BrdU) incorporation, 4 coverslip cultures in each group were incubated with 2 μM of BrdU for sixteen hours before the cultures were fixed in 4% paraformaldehyde, denatured with 1N HCl and processed for immunolabeling and cell counting (Zhang et al., supra, 2000; Zhang et al., supra, 1999).

[2] = system: hESC-derived motor neurons; test: Whole-cell patch-clamp of hESC-derived motor neurons, spontaneous synaptic currents; conditions: combination of D-AP5 (40 μM) and CNQX (20 μM)
[3] = system: hESC-derived neuroectodermal cells; test: Motor neuron induction in adherent culture, immunocytochemistry and HB9 cell counting
Protocol: hESCs (lines H1 and H9, passages 19 to 42) were cultured and passaged weekly on a feeder layer of irradiated embryonic mouse fibroblasts as described (Thomson et al., supra, 1998). The undifferentiated state of ESCs were confirmed by typical morphology and expression of Oct4 and SSEA4. For neuroectodermal differentiation, hESCs were aggregated for four days and then cultured on an adhesive plastic surface for ten days in F12/DMEM supplemented with N2, heparin (2 ng/ml), and FGF2 (20 ng/ml) or RA (Zhang et al., supra, 2001). […]
Primary antibodies used in this study included polyclonal antibodies against neuronal class III βIII-tubulin (Covance Research Products, Richmond, Calif., 1:2000), nestin (Chemicon, Temecula, Calif., 1:750), Sox1 (Chemicon, 1:1000), synapsin I (Calbiochem, Darmstadt, German, 1:500), ChAT (Chemicon, 1:50), and VAChT (Chemicon, 1:1000), Isl½ (S. Pfaff), Otx2 (F. Vaccarino), and Oig2 (M. Nakafuku). […] For identification of electrophysiologically recorded cells, biocytin (Molecular Probes) filled cells were labeled with streptavidin-FITC (sigma, 1:200) and stained for ChAT. […]
The population of HB9-expressing cells among total differentiated cells (Hoechst labeled) was counted by a person who was blind to experimental groups either manually using the Metamorph software (Universal Imaging Corporation, Downingtown, Pa.) or by stereological measurement. […]

| Compound | BrdU incorporation (stimulation of precursor cell proliferation) [1] | Effect on remaining inward (excitatory) synaptic currents [2] | further results |
| --- | --- | --- | --- |
| LIF: leukemia inhibitory factor | could not be elicited | – | – |
| EGF: epidermal growth factor (NSDSECPLSHDGYCLHDGVCMYIEALDKYACNCVVGYIGERCQYRDLKWWELR; Epidermal growth factor; UniProt P01133 971-1023, looked up) | could not be elicited | – | – |
| N[C@H](CCCP(=O)(O)O)C(=O)O [D-AP5, D-2-amino-5-phosphonovaleric acid] | – | blocked | – |
| CC1=C(/C=C/C(C)=C/C=C/C(C)=C/C(=O)O)C(C)(C)CCC1 [RA, retinoic acid] | – | – | RA concentration inducing the highest proportion of HB9+ cells [3]: 0.1 to 1.0 µM; RA dose resulting in degeneration of some cells ([3]; chemically defined adherent cultures): over 1.0 μM |
| N#Cc1cc2c(cc1[N+](=O)[O-])=NC(=O)C(=O)N=2 [CNQX, 6-cyano-7-nitroquinoxaline-2,3-dione] | – | blocked | – |
